Like-named read-outs stand apart in the source and are kept apart here.

The source of these data is publication PMC5269720, “Conformational Change of a Tryptophan Residue in BtuF Facilitates Binding and Transport of Cobinamide by the Vitamin B12 Transporter BtuCD-F” (Scientific Reports, 2017).

Assay [1] addresses T1, wild type BtuCD-F (Escherichia coli, UniProt P06609+P37028).
T1 construct: His10 (N); made in house
In words: In vitro substrate transport assay with liposome reconstituted BtuCD and wild type BtuF. The class given is biochemical. Here is the method: (§1) BtuCD was expressed, purified and reconstituted as described previously with some modifications regarding buffer composition and reconstitution procedure. In brief, BtuCD with an N-terminal His10-tag on BtuC was purified by IMAC and desalted into a buffer of the following composition: 50 mM Tris 7.5, 500 mm NaCl, 0.5 mM EDTA-NaOH 8 and 0.1% w/v LDAO. Purified protein was used directly for reconstitution into liposomes consisting of E. coli Polar lipids and α-Phosphatidylcholine (3:1 weight ratio, Avanti Polar Lipids 100600 C and 840051 C). Liposomes were destabilized with 0.3% w/v Triton X-100 for 20 min at RT. Protein was added with a ratio of 50:1 LPR and incubated for 90 min at RT. Detergent was removed by BioBeads (40 mg/ml mixture) in 4 steps and proteoliposomes were stored at −80 °C until the day of experiment. The protein concentration within the liposomes was determined by Amido black protein assay using BSA for the calibration curve.
The amount of right-side-in oriented BtuCD in liposomes was determined as described previously for ABC type II importer HmuUV with minor modifications. […] The amount of BtuFfluo associated with the liposomes was determined by measuring the fluorescence signal at an excitation wavelength of 485 nm and an emission wavelength of 516 nm. Unspecific BtuFfluo interaction with liposomes was measured using empty liposomes. […]

Assay [2] concerns the target T2, BtuFfluo W66Y (E.c. BtuF) (Escherichia coli, UniProt P37028, Q145C/W66Y).
T2 construct: His6; made in house
As to the kind of experiment: Fluorescence quenching substrate binding assay with BtuFfluo, W66Y mutant. The settings on record: for Kd: BtuFfluo 5 nM, substrate 0.02 nM to 33 μM, 30 min at 10 °C, mean and S.E.M., n = 12. Here is the method:
(§2) For binding assays BtuF was labeled at a cysteine residue in the backbone helix with fluorescein-5-maleimide (Thermo scientific 62245) as described previously. In brief, 50 to 100 μM BtuF Q145C (Invitrogen QuickChange) was labeled with a 10-fold molar excess of fluorescein-5-maleimide (BtuFfluo). The reaction was run over night at 4 °C in the presence of 1 mM TCEP to prevent oxidation and stopped with 5 mM β-mercaptoethanol. Excess label was removed by desalting with PD10 columns and the protein was further purified by size exclusion chromatography. Protein concentration was determined by Bradford assay using BSA for calibration and the labeling efficiency was determined by measuring the absorbance at 494 nm. The labeled protein was flash frozen in liquid nitrogen and stored at −80 °C until the day of use. Final storage buffer was 50 mM HEPES 7, 200 mM NaCl, 0.5 mM EDTA-NaOH 8 and 10% v/v Glycerol.
(§3) The assay is based on monitoring the ligand-induced change in emission of fluorescein attached to BtuF (BtuFfluo). A similar approach has been used to determine the affinity of MBP for maltose in the presence of various sAB[40][41][42]. BtuFfluo at 5 nM was incubated with a range of substrate concentrations from 0.02 nM to 33 μM. After incubation for 30 min at 10 °C the fluorescence intensity was recorded at an excitation wavelength of 485 nm and emission at 528 nm. The maximum signal was recorded in the absence of substrate and decreased with increasing substrate concentration. The difference of the maximum intensity minus the signal at a certain substrate concentration was plotted against the substrate concentration. One site –specific binding in Prism GraphPad was used to fit the data for KD determination (GraphPad Prism version 6.04 for Windows, GraphPad Software, La Jolla California USA, www.graphpad.com”). Binding buffer composition was 50 mM Tris 7.5 and 200 mM NaCl.

The target in assay [3] is T3, BtuFfluo W66H (E.c. BtuF) (Escherichia coli, UniProt P37028, Q145C/W66H).
T3 construct: His6; made in house
As to the kind of experiment: Fluorescence quenching substrate binding assay with BtuFfluo, W66H mutant. The settings on record: for Kd: BtuFfluo 5 nM, substrate 0.02 nM to 33 μM, 30 min at 10 °C, mean and S.E.M., n = 12. Here is the method:
as §2, §3

The target of assay [4] is T4, wild type BtuFfluo (E.c. BtuF) (Escherichia coli, UniProt P37028, Q145C).
T4 construct: His6; made in house
As to the kind of experiment: Fluorescence quenching substrate binding assay with BtuFfluo, wild type. The settings on record: BtuFfluo 5 nM, substrate 0.02 nM to 33 μM, 30 min at 10 °C, mean and S.E.M., n = 12. As to the method: as §2, §3

The target of assay [5] is T5, BtuFfluo W66R (E.c. BtuF) (Escherichia coli, UniProt P37028, Q145C/W66R).
T5 construct: His6; made in house
As to the kind of experiment: Fluorescence quenching substrate binding assay with BtuFfluo, W66R mutant. The note with it: for decrease in affinity compared to wt: W66R (arginine) versus wild type BtuF; for Kd: BtuFfluo 5 nM, substrate 0.02 nM to 33 μM, 30 min at 10 °C, mean and S.E.M., n = 9. As to the method: as §2, §3

Assay [6] concerns the target T6, BtuFfluo W66A (E.c. BtuF) (Escherichia coli, UniProt P37028, Q145C/W66A).
T6 construct: His6; made in house
In words: Fluorescence quenching substrate binding assay with BtuFfluo, W66A mutant. The settings on record: BtuFfluo 5 nM, substrate 0.02 nM to 33 μM, 30 min at 10 °C, mean and S.E.M., n = 12. As to the method: as §2, §3

Assay [7] deals with wild type BtuCD with BtuF W66 mutants (W66A, W66R, W66E, W66F). In words: In vitro substrate transport assay with liposome reconstituted wild type BtuCD and BtuF W66 mutants. The class given is biochemical, Escherichia coli. The note with it: 4 mg/ml proteoliposomes (~0.5 μM total BtuCD), 1 μM BtuF, 2 mM ATP, 15 μM cobinamide or cyanocobalamin. Here is the method: as §1
The amount of right-side-in oriented BtuCD in liposomes was determined as described previously for ABC type II importer HmuUV with minor modifications. Briefly, liposome-reconstituted BtuCD was incubated with 1 μM fluorescently labeled BtuF (BtuFfluo) for 30 min at RT followed by a spin to remove excess BtuFfluo. The pellet was washed and resuspended at 1.25 mg/ml liposome concentration. The amount of BtuFfluo associated with the liposomes was determined by measuring the fluorescence signal at an excitation wavelength of 485 nm and an emission wavelength of 516 nm. Unspecific BtuFfluo interaction with liposomes was measured using empty liposomes.
For the substrate transport assays radiolabeled ^14C-cyano-aquo-cobinamide (^14CN-Cbi, labeled in house) or ^57Co-cyanocobalamin (^57Co-Cbl, MP Biomedicals 06B-430000, 10.5 uCi) was used. […] The radioactivity trapped on the filters was measured either by a β counter using LCS in case of ^14CN-Cbi or a γ counter in case of ^57Co-Cbl. Initial transport rates were determined by using linear regression in PrismGraphpad.

Assay [8] concerns the target T7, BtuFfluo W66F (E.c. BtuF) (Escherichia coli, UniProt P37028, Q145C/W66F).
T7 construct: His6; made in house
As to the kind of experiment: Fluorescence quenching substrate binding assay with BtuFfluo, W66F mutant. The settings on record: BtuFfluo 5 nM, substrate 0.02 nM to 33 μM, 30 min at 10 °C, mean and S.E.M., n = 12. Here is the method:
as §2
The assay is based on monitoring the ligand-induced change in emission of fluorescein attached to BtuF (BtuFfluo). A similar approach has been used to determine the affinity of MBP for maltose in the presence of various sAB[40][41][42]. […] After incubation for 30 min at 10 °C the fluorescence intensity was recorded at an excitation wavelength of 485 nm and emission at 528 nm. The maximum signal was recorded in the absence of substrate and decreased with increasing substrate concentration. […]

In assay [9] the target is T8, BtuFfluo W66E (E.c. BtuF) (Escherichia coli, UniProt P37028, Q145C/W66E).
T8 construct: His6; made in house
As to the kind of experiment: Fluorescence quenching substrate binding assay with BtuFfluo, W66E mutant. As to the method:
as §2, §3

The target in assay [10] is T9, BtuFfluo W66L (E.c. BtuF) (Escherichia coli, UniProt P37028, Q145C/W66L).
T9 construct: His6; made in house
As to the kind of experiment: Fluorescence quenching substrate binding assay with BtuFfluo, W66L mutant. The note with it: for Kd: BtuFfluo 5 nM, substrate 0.02 nM to 33 μM, 30 min at 10 °C, mean and S.E.M., n = 12. As to the method: as §2, §3

T5 sequence (P37028 23-266 W66R/Q145C): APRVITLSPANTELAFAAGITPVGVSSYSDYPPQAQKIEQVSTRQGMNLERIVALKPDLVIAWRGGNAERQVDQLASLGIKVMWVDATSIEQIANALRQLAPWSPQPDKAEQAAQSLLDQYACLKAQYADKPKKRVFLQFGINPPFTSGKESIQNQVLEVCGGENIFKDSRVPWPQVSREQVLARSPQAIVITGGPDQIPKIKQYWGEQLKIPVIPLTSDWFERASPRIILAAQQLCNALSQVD
T3 sequence (P37028 23-266 W66H/Q145C): as the sequence (P37028 23-266 W66R/Q145C) above, with R44H counted along it
T9 sequence (P37028 23-266 W66L/Q145C): as the sequence (P37028 23-266 W66R/Q145C) above, with R44L counted along it
T6 sequence (P37028 23-266 W66A/Q145C): as the sequence (P37028 23-266 W66R/Q145C) above, with R44A counted along it
T4 sequence (P37028 23-266 Q145C): as the sequence (P37028 23-266 W66R/Q145C) above, with R44W counted along it
T8 sequence (P37028 23-266 W66E/Q145C): as the sequence (P37028 23-266 W66R/Q145C) above, with R44E counted along it
T2 sequence (P37028 23-266 W66Y/Q145C): as the sequence (P37028 23-266 W66R/Q145C) above, with R44Y counted along it
T7 sequence (P37028 23-266 W66F/Q145C): as the sequence (P37028 23-266 W66R/Q145C) above, with R44F counted along it
T1 sequence (P06609 whole entry): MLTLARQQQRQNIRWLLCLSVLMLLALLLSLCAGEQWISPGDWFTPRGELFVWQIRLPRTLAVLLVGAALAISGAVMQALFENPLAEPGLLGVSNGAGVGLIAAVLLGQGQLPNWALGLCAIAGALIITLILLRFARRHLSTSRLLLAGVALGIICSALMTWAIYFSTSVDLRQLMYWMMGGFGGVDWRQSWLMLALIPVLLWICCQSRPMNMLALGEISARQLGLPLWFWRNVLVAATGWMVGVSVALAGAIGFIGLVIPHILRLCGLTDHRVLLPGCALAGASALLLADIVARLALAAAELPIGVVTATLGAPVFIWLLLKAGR
T1 sequence (P37028 23-266): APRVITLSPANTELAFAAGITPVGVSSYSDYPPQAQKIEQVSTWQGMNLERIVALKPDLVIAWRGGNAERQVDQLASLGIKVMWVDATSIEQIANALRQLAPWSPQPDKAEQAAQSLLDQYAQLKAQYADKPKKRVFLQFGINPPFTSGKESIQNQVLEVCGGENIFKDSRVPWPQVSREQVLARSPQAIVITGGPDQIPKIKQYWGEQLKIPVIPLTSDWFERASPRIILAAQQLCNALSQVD
T1 sequence (P06611 whole entry, further chain): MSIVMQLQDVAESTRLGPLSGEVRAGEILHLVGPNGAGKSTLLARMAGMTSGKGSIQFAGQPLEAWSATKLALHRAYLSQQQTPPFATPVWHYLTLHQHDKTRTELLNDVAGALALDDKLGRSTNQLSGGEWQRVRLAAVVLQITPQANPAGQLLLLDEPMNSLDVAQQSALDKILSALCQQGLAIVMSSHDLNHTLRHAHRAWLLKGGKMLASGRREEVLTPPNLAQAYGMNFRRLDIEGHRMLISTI

What is called Kd is a measure of binding affinity in units of concentration. Take `C/C1=C2/[N-][C@H]([C@H](CC(N)=O)[C@@]2(C)CCC(=O)NC[C@@H](C)O)[C@]2(C)N=C(/C(C)=C3N=C(/C=C4N=C1[C@@H](CCC(N)=O)C\4(C)C)[C@@H](CCC(N)=O)[C@]\3(C)CC(N)=O)[C@@H](CCC(N)=O)[C@]2(C)CC(N)=O.[Co+3]` [Cbi, cobinamide]: in [1] (14CN-Cbi, 4 mg/ml proteoliposomes (~0.5 μM total BtuCD), 1 μM BtuF, 15 μM cobinamide, 2 mM ATP, 22 °C, corrected for right-side-in oriented transporters, mean ± S.E.M., n = 6), the initial transport rate came out at 0.7 ± 0.2 nmol Cbi/mg protein/min. For the same compound, the “in vitro turnover number for Cbi transport, slower than that of Cbl transport” value in assay [1] (calculated, Cbi versus Cbl transport by wild type BtuCD-F) is listed as “approximately 1.5 fold”. Moreover, the “reduced affinity compared to wt” value was 3 fold in [2] (W66Y (tyrosine) versus wild type BtuF), “more than 10 fold” in assay [3] (W66H (histidine) versus wild type BtuF) and 3 fold in assay [10] (W66L (leucine) versus wild type BtuF). Moreover, the equilibrium dissociation constant (Kd) in [2] (di-CN-Cbi, read-out: KD of Cbi) was 150 ± 30 nM; in [3] (di-CN-Cbi, read-out: KD of Cbi), 500 ± 100 nM; in assay [4] (di-CN-Cbi, read-out: KD of Cbi), 40 ± 10 nM; in assay [5] (di-CN-Cbi, read-out: KD of Cbi) it was 800 ± 200 nM; in [6] (di-CN-Cbi, read-out: KD of Cbi), 1800 ± 800 nM; in assay [8] (di-CN-Cbi, read-out: KD of Cbi) it was 30 ± 7 nM. Further, the Kd in assay [9] (di-CN-Cbi, BtuFfluo 5 nM, substrate 0.02 nM to 33 μM, 30 min at 10 °C, mean and S.E.M., n = 12, read-out: KD of Cbi) was found to be 2900 ± 800 nM; in assay [10] (di-CN-Cbi, read-out: KD of Cbi) it was 120 ± 20 nM. For the same compound, the “decrease in affinity compared to wt” value in [5] was “more than 10 fold”. Besides, the “KD of Cbi” value in assay [6] (di-CN-Cbi) is given as “low micromolar range”; in assay [9] (di-CN-Cbi, BtuFfluo 5 nM, substrate 0.02 nM to 33 μM, 30 min at 10 °C, mean and S.E.M., n = 12), “low micromolar range”. The “effect of BtuF W66X substitution on in vitro transport rate” value was “hardly affected” in [7] and “not influenced” in assay [7] (listed as cobinamide).
Consider cyanocobalamin [Cbl], for which the equilibrium dissociation constant (Kd) in assay [2] (CN-Cbl, read-out: KD of Cbl) stood at 5.7 ± 1.7 nM; in assay [3] (CN-Cbl, read-out: KD of Cbl), 5.5 ± 1.7 nM; in assay [4] (CN-Cbl, read-out: KD of Cbl), 9.1 ± 2.6 nM; in assay [5] (CN-Cbl, read-out: KD of Cbl) it was 68 ± 13 nM; in assay [6] (CN-Cbl, read-out: KD of Cbl), 14 ± 4 nM; in assay [8] (CN-Cbl, read-out: KD of Cbl), 8 ± 1.9 nM. The Kd amounted to 57 ± 15 nM in assay [9] (CN-Cbl, BtuFfluo 5 nM, substrate 0.02 nM to 33 μM, 30 min at 10 °C, mean and S.E.M., n = 12, read-out: KD of Cbl); 15 ± 2 nM in assay [10] (CN-Cbl, read-out: KD of Cbl). For the same compound, in assay [4] (CN-Cbl), the “KD of Cbl” value is listed as “low nM range”. In addition, the “decrease in affinity compared to wt” value in assay [5] and in assay [9] (W66E (glutamate) versus wild type BtuF) was ~ 7 fold throughout. Also, the “effect of BtuF W66X substitution on in vitro transport rate” value in assay [7] is reported as “not influenced”.
